{
  "source": "patent US5536850A",
  "about": "“Substance DC114-A1” (Kyowa Hakko Kogyo Co., Ltd., priority 1993, dated 1996)",
  "key": {"[1]": {"tested_on": "Bacillus subtilis No. 10707", "experiment": "Antibacterial activity, MIC by agar dilution method", "type": "cell-based", "protocol": "(§1) The antibacterial activity was determined by the agar dilution method using a medium (pH 7) which comprises 3 g/l Bacto-tryptone (produced by Difco Laboratories), 3 g/l meat extract, 1 g/l yeast extract, 1 g/l glucose and 16 g/l agar."}, "[2]": {"tested_on": "Candida albicans ATCC 10231", "experiment": "Antibacterial activity, MIC by agar dilution method", "type": "cell-based", "protocol": "as §1"}, "[3]": {"tested_on": "Enterococcus faecium ATCC 10541", "experiment": "Antibacterial activity, MIC by agar dilution method", "type": "cell-based", "protocol": "as §1"}, "Escherichia coli ATCC 26": {"tested_on": "Escherichia coli ATCC 26", "experiment": "Antibacterial activity, MIC by agar dilution method", "type": "cell-based", "details": "ATCC26, pH 7", "protocol": "as §1"}, "[4]": {"tested_on": "Klebsiella pneumoniae ATCC 10031", "experiment": "Antibacterial activity, MIC by agar dilution method", "type": "cell-based", "protocol": "as §1"}, "[5]": {"tested_on": "Proteus vulgaris ATCC 6897", "experiment": "Antibacterial activity, MIC by agar dilution method", "type": "cell-based", "protocol": "as §1"}, "[6]": {"tested_on": "Pseudomonas aeruginosa Bin H No. 1", "experiment": "Antibacterial activity, MIC by agar dilution method", "type": "cell-based", "details": "pH 7", "protocol": "as §1"}, "[7]": {"tested_on": "Salmonella typhi ATCC 9992", "experiment": "Antibacterial activity, MIC by agar dilution method", "type": "cell-based", "details": "Salmonella enterica, pH 7", "protocol": "as §1"}, "[8]": {"tested_on": "Shigella sonnei ATCC 9290", "experiment": "Antibacterial activity, MIC by agar dilution method", "type": "cell-based", "details": "ATCC9290, pH 7", "protocol": "as §1"}, "[9]": {"tested_on": "Staphylococcus aureus ATCC 6538P", "experiment": "Antibacterial activity, MIC by agar dilution method", "type": "cell-based", "details": "ATCC6538P, pH 7", "protocol": "as §1"}, "HeLaS3 cells": {"tested_on": "HeLaS3 cells", "experiment": "Growth inhibition against HeLaS3 cells", "type": "cell-based", "details": "Homo sapiens, HeLa S3, 1 h", "protocol": "HeLaS3 cells (ATCC HTB22) were suspended in a medium comprising 10% fetal calf serum, 2 mM glutamine and MEM medium (produced by Nissui Pharmaceutical Co., Ltd.) (hereinafter referred to as medium A) to a concentration of 3×10^4 cells/ml. The cell suspension was put into wells of a 96-well microtiter plate in an amount of 0.1 ml per well. The cells in the plate were cultured at 37° C. for 20 hours in a CO2 -incubator. Subsequently, the test compound appropriately diluted with medium A was added to the wells in an amount of 0.1 ml/well. The cells were further cultured at 37° C. for one hour in the CO2 -incubator, and then the culture supernatant was removed. To the residue was added a medium comprising medium A and 0.02% Neutral Red in an amount of 0.1 ml per well, followed by culturing at 37° C. for one hour in the CO2 -incubator, whereby the cells were stained. After removal of the culture supernatant, the residue was washed once with physiological saline. The pigment was extracted with 0.001 N hydrochloric acid/30% ethanol, and the absorbance at 550 nm was measured by using a microplate reader. The concentration of the test compound at which the growth of the cells is inhibited by 50% (IC50) was calculated by comparing the absorbance of untreated cells with those of the cells treated with the test compound at known concentrations."}, "Solubility": {"experiment": "Solubility", "type": "physicochemical"}},
  "note": "Like-named read-outs stand apart in the source and are kept apart here.",
  "data": [
    {"compound": "Cc1cc2c(O)c3c(cc2c2oc(C4(C)OC4C4CO4)cc(=O)c12)C(=O)C1OC1(C1CC(=O)C(O)C(C)O1)C3=O", "note": "(centres unmarked) [DC114-A1]", "values": [
      {"measurement": "MIC", "setting": "[1]; Bacillus subtilis, NO.10707, pH 7", "result": 0.33, "unit": "mg/L"},
      {"measurement": "MIC", "setting": "[2]; Candida albicans, ATCC10231, pH 7", "result": 5.21, "unit": "mg/L"},
      {"measurement": "MIC", "setting": "[3]; Enterococcus faecium, ATCC10541, pH 7", "result": 0.16, "unit": "mg/L"},
      {"measurement": "MIC", "setting": "Escherichia coli ATCC 26", "result": 5.21, "unit": "mg/L"},
      {"measurement": "MIC", "setting": "[4]; Klebsiella pneumoniae, ATCC10031, pH 7", "result": 5.21, "unit": "mg/L"},
      {"measurement": "MIC", "setting": "[5]; Proteus vulgaris, ATCC6897, pH 7", "result": 2.6, "unit": "mg/L"},
      {"measurement": "MIC", "setting": "[6]; Pseudomonas aeruginosa", "result": 5.21, "unit": "mg/L"},
      {"measurement": "MIC", "setting": "[7]", "result": 5.21, "unit": "mg/L"},
      {"measurement": "MIC", "setting": "[8]", "result": 5.21, "unit": "mg/L"},
      {"measurement": "MIC", "setting": "[9]; Staphylococcus aureus", "result": 0.04, "unit": "mg/L"},
      {"measurement": "IC50", "setting": "HeLaS3 cells", "result": 0.012, "unit": "µM"},
      {"measurement": "Solubility", "setting": "Solubility; acetone", "result": "Soluble"},
      {"measurement": "Solubility", "setting": "Solubility; chloroform", "result": "sparingly soluble"},
      {"measurement": "Solubility", "setting": "Solubility; dimethylsulfoxide (DMSO)", "result": "Soluble"},
      {"measurement": "Solubility", "setting": "Solubility; ethyl acetate", "result": "sparingly soluble"},
      {"measurement": "Solubility", "setting": "Solubility; methanol", "result": "Soluble"},
      {"measurement": "Solubility", "setting": "Solubility; n-hexane", "result": "sparingly soluble"},
      {"measurement": "Solubility", "setting": "Solubility; water", "result": "sparingly soluble"}
    ]},
    {"compound": "Cc1cc2c(O)c3c(cc2c2oc(C4(C)OC4C4CO4)cc(=O)c12)C(=O)C1OC1(C1CC(=O)C(O)C(C)O1)C3O", "note": "(centres unmarked) [DC114-C, reference compound]", "values": [
      {"measurement": "MIC", "setting": "[1]; Bacillus subtilis No. 10707, agar dilution, pH 7, read-out: MIC", "result": 0.33, "unit": "mg/L"},
      {"measurement": "MIC", "setting": "[2]; ATCC10231, Candida albicans ATCC 10231, agar dilution, pH 7, read-out: MIC", "result": "> 83.3", "unit": "mg/L"},
      {"measurement": "MIC", "setting": "[3]; ATCC10541, Enterococcus faecium ATCC 10541, agar dilution, pH 7, read-out: MIC", "result": 0.16, "unit": "mg/L"},
      {"measurement": "MIC", "setting": "Escherichia coli ATCC 26", "result": 20.8, "unit": "mg/L"},
      {"measurement": "MIC", "setting": "[4]; ATCC10031, Klebsiella pneumoniae ATCC 10031, agar dilution, pH 7, read-out: MIC", "result": 5.21, "unit": "mg/L"},
      {"measurement": "MIC", "setting": "[5]; ATCC6897, Proteus vulgaris ATCC 6897, agar dilution, pH 7, read-out: MIC", "result": 5.21, "unit": "mg/L"},
      {"measurement": "MIC", "setting": "[6]; Pseudomonas aeruginosa Bin H No. 1, agar dilution, read-out: MIC", "result": 41.7, "unit": "mg/L"},
      {"measurement": "MIC", "setting": "[7]", "result": 20.8, "unit": "mg/L"},
      {"measurement": "MIC", "setting": "[8]", "result": 20.8, "unit": "mg/L"},
      {"measurement": "MIC", "setting": "[9]; Staphylococcus aureus ATCC 6538P, agar dilution, read-out: MIC", "result": 0.16, "unit": "mg/L"},
      {"measurement": "IC50", "setting": "HeLaS3 cells; HeLaS3 cells, one hour with compound, 37° C., Neutral Red, absorbance at 550 nm, read-out: IC50", "result": 0.021, "unit": "µM"}
    ]}
  ]
}
